For 24 molecules, IC50 results are on record in US8378104B2 (OSI Pharmaceuticals, LLC, priority 2010, dated 2013).

The structures appear in SMILES notation. Where a name gives a salt, the structure may show the parent alone. Read-outs that look alike come from different tables or passages of the source.

In assay [1] the test system is pJNK in HCT-116 cells. Put plainly: Phospho-JNK (Thr183/Tyr185) Meso Scale ELISA assay, TNFα-stimulated HCT-116 cells. In kind it is cell-based. The settings on record: Homo sapiens, read-out: mean HCT-116 pJNK ELISA IC50 (Col. B). In outline:
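HCT-116 cells in 1% FCS medium were pretreated with compound for 4 hrs at 37° C, then stimulated with TNFα at 10 ng/mL final for 10 minutes. Lysates were taken in ice-cold lysis buffer with phosphatase and protease inhibitors, and phospho-JNK (Thr183/Tyr185) was measured by Meso Scale ELISA.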

In assay [2] the target is T1, TAK1-TAB1 fusion protein (Homo sapiens, UniProt O43318).
T1 construct: purchased Carna
T1 sequence (O43318 with tags, fused parts or gaps limits assumed): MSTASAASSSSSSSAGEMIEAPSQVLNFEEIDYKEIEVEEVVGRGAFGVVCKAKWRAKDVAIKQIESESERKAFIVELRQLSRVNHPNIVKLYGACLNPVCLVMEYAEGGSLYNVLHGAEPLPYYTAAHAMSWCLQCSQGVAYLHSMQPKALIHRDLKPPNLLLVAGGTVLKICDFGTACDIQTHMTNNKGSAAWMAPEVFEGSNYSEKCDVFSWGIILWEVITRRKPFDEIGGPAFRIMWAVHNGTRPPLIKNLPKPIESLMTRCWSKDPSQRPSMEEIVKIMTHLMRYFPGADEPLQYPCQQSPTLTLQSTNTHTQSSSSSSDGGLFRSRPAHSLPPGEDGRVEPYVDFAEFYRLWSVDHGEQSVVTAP
In words: TAK1 biochemical assay (AlphaScreen, GST-MAP2K7 substrate).

Where [3] appears, read: TAK1-TAB1 fusion protein, GST-MAP2K7 substrate, read-out: mean TAK1 IC50 (Col. A).

In the case of `COCc1nc2cccc(-c3cc4c(-c5cnn([C@H]6CC[C@H](O)CC6)c5)cnc(N)c4o3)c2s1` [Example 349, trans-4-(4-{7-amino-2-[2-(methoxymethyl)-1,3-benzothiazol-7-yl]furo[2,3-c]pyridin-4-yl}-1H-pyrazol-1-yl)cyclohexanol Trifluoroacetate (salt)], the half-inhibitory concentration (IC50) in assay [1] and in assay [2] (setting [3]) was under 100 nM in each case.

Turning to `CN1[C@@H]2CC[C@H]1C[C@H](n1cc(-c3cnc(N)c4oc(-c5cccc6cnsc56)cc34)cn1)C2` [Example 330, 2-(1,2-benziso-thiazol-7-yl)-4-{1-[(3-exo)-8-methyl-8-azabicyclo[3.2.1]oct-3-yl]-1H-pyrazol-4-yl}furo[2,3-c]pyridin-7-amine], the IC50 in assay [1] was 100 to 1000 nM; in assay [2] (setting [3]) it was under 100 nM.

For the molecule `Nc1ncc(-c2cnn([C@@H]3CCC[C@@H](O)C3)c2)c2cc(-c3csc4cnccc34)oc12` (relative stereo) [Example 309, trans-3-[4-(7-amino-2-thieno[2,3-c]pyridin-3-yl-furo[2,3-c]pyridin-4-yl)-pyrazol-1-yl]-cyclohexanol], the half-maximal inhibitory concentration (IC50) in assay [1] and in assay [2] (setting [3]) was under 100 nM in each case.

Consider `CC(=O)N1CCC(n2cc(-c3cnc(N)c4oc(-c5csc6c(F)nccc56)cc34)cn2)CC1` [Example 256, 1-(4-{4-[7-amino-2-(7-fluorothieno[2,3-c]pyridin-3-yl)furo[2,3-c]pyridin-4-yl]-1H-pyrazol-1-yl}piperidin-1-yl)ethanone trifluoroacetic acid salt], for which the IC50 in assay [1] and in assay [2] (setting [3]) was 100 to 1000 nM each time.

Regarding `CC(C)(O)C#Cc1sc2cnccc2c1-c1cc2c(-c3cnn([C@H]4CC[C@H](O)CC4)c3)cnc(N)c2o1` [Example 271, trans-4-(4-{7-amino-2-[2-(3-hydroxy-3-methylbut-1-yn-1-yl)thieno[2,3-c]pyridin-3-yl]furo[2,3-c]pyridin-4-yl}-1H-pyrazol-1-yl)cyclohexanol trifluoroacetate], the IC50 in assay [1] is 1000 to 10000 nM; in assay [2] (setting [3]), 100 to 1000 nM.

Regarding `Nc1ncc(-c2cnn(C3CCN(C(=O)CCc4ccccc4)CC3)c2)c2cc(-c3csc4cnccc34)oc12` [Example 331, 1-{4-[4-(7-amino-2-thieno[2,3-c]pyridin-3-yl-furo[2,3-c]pyridin-4-yl)-pyrazol-1-yl]-piperidin-1-yl}-3-phenyl-propan-1-one], the IC50 in assay [1] and in assay [2] (setting [3]) was 100 to 1000 nM each time.

On to `Nc1ncc(-c2cnn([C@@H]3CCC[C@@H](O)C3)c2)c2cc(-c3cccc4cnsc34)oc12` (relative stereo) [Example 313, trans-3-[4-(7-amino-2-benzo[d]isothiazol-7-yl-furo[2,3-c]pyridin-4-yl)-pyrazol-1-yl]-cyclohexanol], for which the figures for the IC50 in assay [1] and in assay [2] (setting [3]) were 100 to 1000 nM and under 100 nM, respectively.

Take `CC(C)(C)OC(=O)N1[C@@H]2CC[C@H]1C[C@H](n1cc(-c3cnc(N)c4oc(-c5csc6cnccc56)cc34)cn1)C2` [Example 299, tert-butyl (3-exo)-3-{4-[7-amino-2-(thieno[2,3-c]pyridin-3-yl)furo[2,3-c]pyridin-4-yl]-1H-pyrazol-1-yl}-8-azabicyclo[3.2.1]octane-8-carboxylate]: the IC50 in assay [1] and in assay [2] (setting [3]) was 100 to 1000 nM each time.

As for `CC(=O)N1CCC(n2cc(-c3cnc(N)c4oc(-c5ccc(F)c6cnsc56)cc34)cn2)CC1` [Example 223, 1-(4-{4-[7-amino-2-(4-fluoro-1,2-benzothiazol-7-yl)furo[2,3-c]pyridin-4-yl]-1H-pyrazol-1-yl}piperidin-1-yl)ethanone diformate salt], the IC50 in assay [1] and in assay [2] (setting [3]) was 100 to 1000 nM in each case.

Turning to `Nc1ncc(-c2cnn([C@@H]3C[C@H]4CC[C@@H](C3)N4)c2)c2cc(-c3csc4cnccc34)oc12` [Example 320, 4-{1-[(3-exo)-8-azabicyclo[3.2.1]oct-3-yl]-1H-pyrazol-4-yl}-2-(thieno[2,3-c]pyridin-3-yl)furo[2,3-c]pyridin-7-amine], the IC50 is 100 to 1000 nM in assay [1] and under 100 nM in assay [2] (setting [3]).

As to `CC(C)CNC(=O)N1CCC(n2cc(-c3cnc(N)c4oc(-c5cccc6cnsc56)cc34)cn2)CC1` [Example 338, 4-[4-(7-amino-2-benzo[d]isothiazol-7-yl-furo[2,3-c]pyridin-4-yl)-pyrazol-1-yl]-piperidine-1-carboxylic acid isobutyl-amide], the IC50 in assay [1] and in assay [2] (setting [3]) was 100 to 1000 nM each time.

For the molecule `CC(=O)N1CCC(n2cc(-c3cnc(N)c4oc(-c5csc6cnc(Cl)cc56)cc34)cn2)CC1` [Example 246, 1-(4-{4-[7-amino-2-(5-chlorothieno[2,3-c]pyridin-3-yl)furo[2,3-c]pyridin-4-yl]-1H-pyrazol-1-yl}piperidin-1-yl)ethanone bis(trifluoroacetate)], the IC50 in assay [1] and in assay [2] (setting [3]) was 100 to 1000 nM throughout.

For the molecule `Nc1ncc(-c2ccoc2)c2cc(-c3csc4cnccc34)oc12` [Example 392, 4-(furan-3-yl)-2-(thieno[2,3-c]pyridin-3-yl)furo[2,3-c]pyridin-7-amine trifluoroacetate], the half-maximal inhibitory concentration (IC50) in assay [1] was in the range of 1000 to 10000 nM; in assay [2] (setting [3]), 100 to 1000 nM.

Turning to `CC(=O)N1CCC(n2cc(-c3cnc(N)c4oc(-c5cccc6ncsc56)cc34)cn2)CC1` [Example 225, 1-(4-{4-[7-amino-2-(1,3-benzothiazol-7-yl)furo[2,3-c]pyridin-4-yl]-1H-pyrazol-1-yl}piperidin-1-yl)ethanone diformate salt], the concentration for half-maximal inhibition (IC50) in assay [1] and in assay [2] (setting [3]) was under 100 nM in each case.

For the molecule `Nc1ncc(-c2cnn([C@H]3CC[C@H](O)CC3)c2)c2c(Cl)c(-c3csc4cnccc34)oc12` [Example 287, trans-4-{4-[7-amino-3-chloro-2-(thieno[2,3-c]pyridin-3-yl)furo[2,3-c]pyridin-4-yl]-1H-pyrazol-1-yl}cyclohexanol], the values for the IC50 in assay [1] and in assay [2] (setting [3]) were under 100 nM and 100 to 1000 nM, respectively.

For `COCCCn1cc(-c2cnc(N)c3oc(-c4csc5cnccc45)cc23)cn1` [Example 342, 4-[1-(3-methoxy-propyl)-1H-pyrazol-4-yl]-2-thieno[2,3-c]pyridin-3-yl-furo[2,3-c]pyridin-7-ylamine], the IC50 in assay [1] and in assay [2] (setting [3]) was 100 to 1000 nM each time.

For `Nc1ncc(-c2cnn([C@H]3CC[C@H](O)CC3)c2)c2c(Cl)c(-c3cccc4nnsc34)oc12` [Example 286, trans-4-{4-[7-amino-2-(1,2,3-benzothiadiazol-7-yl)-3-chlorofuro[2,3-c]pyridin-4-yl]-1H-pyrazol-1-yl}cyclohexanol], the IC50 in assay [1] and in assay [2] was under 100 nM throughout.

Turning to `Nc1ncc(-c2cnn([C@@H]3C[C@H]4CC[C@@H](C3)N4C=O)c2)c2cc(-c3cccc4cnsc34)oc12` [Example 326, (3-exo)-3-{4-[7-amino-2-(1,2-benzisothiazol-7-yl)furo[2,3-c]pyridin-4-yl]-1H-pyrazol-1-yl}-8-azabicyclo[3.2.1]octane-8-carbaldehyde], the IC50 in assay [1] and in assay [2] (setting [3]) was under 100 nM in each case.

Regarding `Nc1ncc(-c2cnn([C@@H]3CCC[C@H](O)C3)c2)c2cc(-c3csc4cnccc34)oc12` (relative stereo) [Example 310, cis-3-[4-(7-amino-2-thieno[2,3-c]pyridin-3-yl-furo[2,3-c]pyridin-4-yl)-pyrazol-1-yl]-cyclohexanol], the IC50 in assay [1] and in assay [2] (setting [3]) was under 100 nM throughout.

Regarding `N#Cc1sc2cnccc2c1-c1cc2c(-c3cnn([C@H]4CC[C@H](O)CC4)c3)cnc(N)c2o1` [Example 270, 3-{7-amino-4-[1-(trans-4-hydroxycyclohexyl)-1H-pyrazol-4-yl]furo[2,3-c]pyridin-2-yl}thieno[2,3-c]pyridine-2-carbonitrile trifluoroacetate], the concentration for half-maximal inhibition (IC50) in assay [1] is under 100 nM; in assay [2] (setting [3]) it was 100 to 1000 nM.

Regarding `COCc1nc2cccc(-c3cc4c(-c5cnn(C6CCN(C(C)=O)CC6)c5)cnc(N)c4o3)c2s1` [Example 348, 1-[4-(4-{7-amino-2-[2-(methoxymethyl)-1,3-benzothiazol-7-yl]furo[2,3-c]pyridin-4-yl}-1H-pyrazol-1-yl)piperidin-1-yl]ethanone trifluoroacetate], the IC50 in assay [1] and in assay [2] (setting [3]) was under 100 nM each time.

Turning to `CC(=O)N1CCC(n2cc(-c3cnc(N)c4oc(-c5cccc6sncc56)cc34)cn2)CC1` [Example 241, 1-(4-{4-[7-amino-2-(1,2-benzothiazol-4-yl)furo[2,3-c]pyridin-4-yl]-1H-pyrazol-1-yl}piperidin-1-yl)ethanone diformate Salt], the IC50 in assay [1] and in assay [2] (setting [3]) was under 100 nM each time.

For the molecule `CNc1nc2cccc(-c3cc4c(-c5cnn(C6CCN(C(C)=O)CC6)c5)cnc(N)c4o3)c2s1` [Example 350, 1-[4-(4-{7-amino-2-[2-(methylamino)-1,3-benzothiazol-7-yl]furo[2,3-d]pyridin-4-yl}-1H-pyrazol-1-yl)piperidin-1-yl]ethanone trifluoroacetate], the IC50 in assay [1] and in assay [2] (setting [3]) was under 100 nM throughout.

In the case of `CC(=O)N1CCC(n2cc(-c3cnc(N)c4oc(-c5c(F)ccc6nnsc56)cc34)cn2)CC1` [Example 273, 1-(4-{4-[7-amino-2-(6-fluoro-1,2,3-benzothiadiazol-7-yl)furo[2,3-c]pyridin-4-yl]-1H-pyrazol-1-yl}piperidin-1-yl)ethanone], the values for the IC50 in assay [1] and in assay [2] (setting [3]) were 100 to 1000 nM and under 100 nM, respectively.
